The target of one test is human CYP11B2 (Homo sapiens (Human), UniProt P19099). The test is described as follows: V79-Human-CYP11B2 cell assay. In kind it is cell-based. Conditions: V79 cells stably expressing human CYP11B2; 125 nM 11-deoxycorticosterone substrate; aldosterone measured by HTRF. As for the experimental part:
(§1) Methods for V79-Human-CYP11B2 and V79-Human-CYP11B1 Assays:
(§2) V79 cell lines stably expressing the either the human CYP11B2 or the human CYP11B1 enzyme were generated using a standard transfection protocol. V79 cells were transfected with plasmids pTriEx3-Hygro-hCyp11B2 or pTriEx3-Hygro-hCyp11B1 using Lipofectamine2000 reagent. V79 cells that stably express the human CYP11B2 or human CYP11B1 enzyme were selected for and maintained in DMEM supplemented with 10% FBS and 400 μg/mL hygromycin for ˜2 weeks. Single cell clones were generated by […] in DMEM supplemented with 10% FBS and 400 μg/mL hygromycin until single colonies were obtained. […] For testing of inhibitors, cells were harvested at 80% confluency with 0.5% Trypsan-EDTA, washed once in PBS, and reconstituted in DMEM+0.1% BSA media at a cell concentration of 600,000 cells/mL for the CYP11B2 assay and 280,000 cells/mL for the CYP11B1 assay. 25 μL of cells were added to a 384 well tissue culture treated plate and mixed with 0.3 μL of inhibitor or DMSO (1% final DMSO concentration) for 1 hour at 37° C., 5% CO2. […] The reaction was carried out for 3 hours at 37° C., 5% CO2 and was stopped by harvesting the supernatants. The amount of product in the supernatant (aldosterone for CYP11B2 assay and cortisol for the CYP11B1 assay) was measured using HTRF-based assay kit (Aldosterone HTRF-CisBio#64ALDPEB, Cortisol HTRF-CisBio #63IDC002-CORT). IC50s for the inhibitor were determined by plotting the amount of product formed against the concentration of inhibitor using sigmoidal dose-response curve (variable slope) fit in GraphPad.
Background: In TR-FRET formats the signal depends on donor and acceptor labels being close together.

The target of a further test is human CYP11B1 (Homo sapiens (Human), UniProt P15538). The experiment in a line: V79-Human-CYP11B1 cell assay. The following applies: for inhibition at 10 µM: starred values of the CYP11B1 column; for IC50: V79 cells stably expressing human CYP11B1, 250 nM 11-deoxycortisol substrate, cortisol measured by HTRF. Type of test: cell-based. As for the experimental part: as §1, §2
human CYP11B1, sequence (P15538 25-503): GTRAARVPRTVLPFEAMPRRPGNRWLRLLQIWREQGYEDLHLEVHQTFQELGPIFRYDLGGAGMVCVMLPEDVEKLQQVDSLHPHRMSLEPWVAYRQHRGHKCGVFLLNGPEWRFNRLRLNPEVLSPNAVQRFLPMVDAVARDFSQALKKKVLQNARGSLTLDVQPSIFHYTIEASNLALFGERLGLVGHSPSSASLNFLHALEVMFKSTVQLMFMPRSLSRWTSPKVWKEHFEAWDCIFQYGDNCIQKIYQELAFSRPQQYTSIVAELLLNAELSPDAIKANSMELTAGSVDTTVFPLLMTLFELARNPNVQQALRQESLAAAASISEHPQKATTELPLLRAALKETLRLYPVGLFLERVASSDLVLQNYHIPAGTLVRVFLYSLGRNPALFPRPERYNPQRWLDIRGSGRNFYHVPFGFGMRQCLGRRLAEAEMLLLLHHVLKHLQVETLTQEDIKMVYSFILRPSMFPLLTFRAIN

This passage reports IC50 and inhibition results from patent US9518055B2, “Imidazopyridyl compounds as aldosterone synthase inhibitors” (Merck Sharp & Dohme Corp., priority 2011, dated 2016).

Usually IC50 stands for the point on the concentration scale where inhibition reaches its midpoint. A high value points to weaker potency. What is called inhibition is the relative decrease from the control value, in per cent. A lower inhibition goes with a weak effect.

Structures are written as SMILES.

human CYP11B2, sequence (P19099 25-503): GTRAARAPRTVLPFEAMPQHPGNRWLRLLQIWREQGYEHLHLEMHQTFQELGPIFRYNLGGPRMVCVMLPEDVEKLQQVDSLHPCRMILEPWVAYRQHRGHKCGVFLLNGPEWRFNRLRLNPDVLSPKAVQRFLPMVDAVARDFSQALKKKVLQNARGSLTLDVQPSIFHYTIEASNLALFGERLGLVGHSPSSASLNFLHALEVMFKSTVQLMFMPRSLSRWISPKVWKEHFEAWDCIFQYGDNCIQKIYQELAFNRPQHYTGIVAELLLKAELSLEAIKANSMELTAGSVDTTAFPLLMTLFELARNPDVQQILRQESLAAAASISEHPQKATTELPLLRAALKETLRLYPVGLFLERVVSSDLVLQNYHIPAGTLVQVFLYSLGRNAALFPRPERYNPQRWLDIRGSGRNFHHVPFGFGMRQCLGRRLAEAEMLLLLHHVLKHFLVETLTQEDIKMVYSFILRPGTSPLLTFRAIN

As to `Cc1ccncc1-c1cn2cc(F)ccc2n1` [Example 6, 6-fluoro-2-(4-methylpyridin-3-yl)imidazo[1,2-a]pyridine], the half-maximal inhibitory concentration (IC50) on human CYP11B2 was 22.4 nM. Moreover, on human CYP11B1, at 10 µM the inhibition was 63%.
In the same order, the values of `Cc1cncc(-c2cn3cc(F)ccc3n2)c1` [Example 7, 6-fluoro-2-(5-methylpyridin-3-yl)imidazo[1,2-a]pyridine] are 56.2 nM and 60%.
With `COc1cncc(-c2nc3ccc(F)cn3c2C)c1` [Example 18, 6-fluoro-3-methyl-2-(5-methoxypyridin-3-yl)imidazo[1,2-a]pyridine], the 50% inhibitory concentration (IC50) on human CYP11B2 was 0.3 nM; at human CYP11B1, 32.4 nM.
As for `Cc1cncc(-c2nc3ccc(F)cn3c2C)c1` [Example 19, 6-fluoro-3-methyl-2-(5-methylpyridin-3-yl)imidazo[1,2-a]pyridine], the IC50 on human CYP11B2 was found to be 0.45 nM; against human CYP11B1, 40.7 nM.
The corresponding values for `Cc1ccncc1-c1nc2ccc(F)cn2c1C` [Example 20, 6-fluoro-3-methyl-2-(4-methylpyridin-3-yl)imidazo[1,2-a]pyridine] are 2.2 nM and 135 nM.
In the same order, the values of `Cc1c(-c2cncc3ccccc23)nc2ccc(F)cn12` [Example 25] are 0.1 nM and 14.8 nM.
In the same order, the values of `Cc1c(-c2cncc(F)c2)nc2cc(F)ccn12` [Example 26, 7-fluoro-2-(5-fluoropyridin-3-yl)-3-methylimidazo[1,2-a]pyridine] are 4.7 nM and 912 nM.
